Data: US7098039B1, “Analysis of a sample to determine its characteristic cycle time” (The Victoria University of Manchester, priority 1998, dated 2006)
Read-outs that look alike come from different tables or passages of the source.

System: peptide sequence VCDWWGWGIC (mimic of the binding of drugs by the drug efflux protein P-glycoprotein)
Experiment: Quenching of the natural tryptophan fluorescence of peptide […] on drug binding (FIG. 7h titration)
Conditions: for relative intensity of the peak at 359.25 nm, indicating the degree of quenching: peptide 49.1 μM, 0.1 M Tris pH 7.5
Excerpt: The system illustrated in FIG. 7 may be a drug binding to a protein or peptide comprising fluorescent amino acids at the site of binding.
The number in brackets, following each titration, is the relative intensity of the peak at 359.25 nm, indicating the degree of quenching.

[1] = peptide VCDWWGWGIC, linear sequence or cyclised, result in words

COC(=O)[C@H]1[C@H]2C[C@@H]3c4[nH]c5cc(OC)ccc5c4CCN3C[C@H]2C[C@@H](OC(=O)c2cc(OC)c(OC)c(OC)c2)[C@@H]1OC [Reserpine]
natural tryptophan fluorescence of the peptide quenched by the drug [1]: quenched

CN1C(=O)CN=C(c2ccccc2)c2cc(Cl)ccc21 [Diazepam]
natural tryptophan fluorescence of the peptide quenched by the drug: quenched

O=c1c(-c2ccc(O)cc2)coc2cc(O)cc(O)c12 [Genistein]
natural tryptophan fluorescence of the peptide quenched by the drug (peptide […], linear sequence or cyclised, result in words): quenched

CC[C@H]1OC(=O)[C@H](C)[C@@H](O[C@H]2C[C@@](C)(OC)[C@@H](O)[C@H](C)O2)[C@H](C)[C@@H](O[C@@H]2O[C@H](C)C[C@H](N(C)C)[C@H]2O)[C@](C)(O)C[C@@H](C)C(=O)[C@H](C)[C@@H](O)[C@]1(C)O [Erythromycin]
natural tryptophan fluorescence of the peptide quenched by the drug [1]: quenched

COc1cccc2c1C(=O)c1c(O)c3c(c(O)c1C2=O)C[C@@](O)(C(=O)CO)C[C@@H]3O[C@H]1C[C@H](N)[C@H](O)[C@H](C)O1 [Doxorubicin]
natural tryptophan fluorescence of the peptide quenched by the drug [1]: quenched | relative intensity of the peak at 359.25 nm, indicating the degree of quenching (peptide:doxorubicin 1:0.1, 2.9 ml, without doxorubicin normalised at 999.99): 917.99 | relative intensity of the peak at 359.25 nm, indicating the degree of quenching (peptide:doxorubicin 1:0.2, without doxorubicin 999.99): 835.53 | relative intensity of the peak at 359.25 nm, indicating the degree of quenching (peptide:doxorubicin 1:0.3, without doxorubicin 999.99): 769.34 | relative intensity of the peak at 359.25 nm, indicating the degree of quenching (peptide:doxorubicin 1:0.4, without doxorubicin 999.99): 704.25 | relative intensity of the peak at 359.25 nm, indicating the degree of quenching (peptide:doxorubicin 1:0.5, without doxorubicin 999.99): 633.91 | relative intensity of the peak at 359.25 nm, indicating the degree of quenching (peptide:doxorubicin 1:0.6, without doxorubicin 999.99): 594.31 | relative intensity of the peak at 359.25 nm, indicating the degree of quenching (peptide:doxorubicin 1:0.7, without doxorubicin 999.99): 547.73 | relative intensity of the peak at 359.25 nm, indicating the degree of quenching (peptide:doxorubicin 1:0.8, without doxorubicin 999.99): 498.54 | relative intensity of the peak at 359.25 nm, indicating the degree of quenching (peptide:doxorubicin 1:0.9, without doxorubicin 999.99): 457.70 | relative intensity of the peak at 359.25 nm, indicating the degree of quenching (peptide:doxorubicin 1:1, without doxorubicin 999.99): 415.96 | relative intensity of the peak at 359.25 nm, indicating the degree of quenching (peptide:doxorubicin 1:1.1, without doxorubicin 999.99): 390.24

N[C@@H](Cc1ccc(N(CCCl)CCCl)cc1)C(=O)O [Melphalan]
natural tryptophan fluorescence of the peptide quenched by the drug [1]: quenched

C[C@H]1O[C@@H](O[C@H]2[C@@H](O)C[C@H](O[C@H]3[C@@H](O)C[C@H](O[C@H]4CC[C@@]5(C)[C@H](CC[C@@H]6[C@@H]5C[C@@H](O)[C@]5(C)[C@@H](C7=CC(=O)OC7)CC[C@]65O)C4)O[C@@H]3C)O[C@@H]2C)C[C@H](O)[C@@H]1O [Digoxin]
natural tryptophan fluorescence of the peptide quenched by the drug [1]: quenched

CO[C@@H]1[C@@H](OC(N)=O)[C@@H](O)[C@H](Oc2ccc3c(O)c(NC(=O)c4ccc(O)c(CC=C(C)C)c4)c(=O)oc3c2C)OC1(C)C [Novobiocin]
natural tryptophan fluorescence of the peptide quenched by the drug [1]: quenched

Cyclosporin A
natural tryptophan fluorescence of the peptide quenched by the drug [1]: quenched

CC[C@]1(O)C[C@@H]2CN(CCc3c([nH]c4ccccc34)[C@@](C(=O)OC)(c3cc4c(cc3OC)N(C)[C@H]3[C@@](O)(C(=O)OC)[C@H](OC(C)=O)[C@]5(CC)C=CCN6CC[C@]43[C@@H]65)C2)C1 [Vinblastine]
natural tryptophan fluorescence of the peptide quenched by the drug [1]: quenched
